The values below come from patent publication US20030157107A1, “Agents for preventing or ameliorating insulin resistance and/or obesity” (priority 2000, published 2003).

No end group written: not given here.

The target in assay [1] is T1, GIP-receptor (Homo sapiens, UniProt P48546).
T1 construct: expressed in transfected cells; host or cells: CHO cells
T1 sequence (P48546 22-466): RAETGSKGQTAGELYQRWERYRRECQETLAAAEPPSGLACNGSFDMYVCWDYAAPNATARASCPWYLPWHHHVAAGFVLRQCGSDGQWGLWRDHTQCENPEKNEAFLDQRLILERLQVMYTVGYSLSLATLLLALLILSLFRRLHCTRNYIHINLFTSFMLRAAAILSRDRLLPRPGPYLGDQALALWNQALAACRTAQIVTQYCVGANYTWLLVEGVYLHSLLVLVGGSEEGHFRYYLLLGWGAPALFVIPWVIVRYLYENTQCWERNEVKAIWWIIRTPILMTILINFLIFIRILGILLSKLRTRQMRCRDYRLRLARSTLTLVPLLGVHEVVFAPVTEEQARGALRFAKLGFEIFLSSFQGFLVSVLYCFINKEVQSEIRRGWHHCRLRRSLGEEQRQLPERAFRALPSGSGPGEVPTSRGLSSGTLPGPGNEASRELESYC
As to the kind of experiment: Inhibition of GIP-stimulated cAMP production in GIP-receptor expressing CHO cells. The settings on record: CHO cells expressing GIP-receptor stimulated by 100 pM GIP; read-out: EC50 of inhibition of the cAMP production inducing effect of GIP. It counts as cell-based. The protocol: 1. A method for screening drugs by monitoring an inhibitory activity on the production of cAMP, an intracellular transmitter of GIP, which according to the method described by Kubota et al. (Diabetes, 45: 1701-1705, 1996), uses the human GIP-receptor expressing cells where […] is introduced into the CHO cells, and make cAMP produced by GIP in Krebs-Ringer buffer solution containing 1 mM isobutylmethylxanthine at 37° C. for 30 minutes in the presence of the drug. Then cAMP is extracted with 30% trichloroacetic acid, and radioimmunoassay is used to quantitate cAMP. Alternatively, Scintillation Proximity Assay (SPA) provided by Amersham Pharmacia Biotech Co., Inc. is used to quantitate cAMP.
Screening of low molecular GIP function inhibitors was performed in accordance with the Example 1 of the screening method. Specifically, the GIP-receptor expressing CHO cells were stimulated with 100 pM GIP in the presence and absence of the test compound, and the amount of produced cAMP was measured to determine the GIP function inhibitory activity of the test compound. […] Moreover, in order to determine other effects which are unrelated to these receptors, the CHO cells without introducing any of these receptor genes were stimulated with 5 μM forskolin, and the inhibitory effect of the test compound on production of cAMP was determined. […]

In assay [2] the target is T2, glucagon-receptor (Homo sapiens, UniProt P47871).
T2 construct: expressed in transfected cells; host or cells: CHO cells
T2 sequence (P47871 26-477, species assumed): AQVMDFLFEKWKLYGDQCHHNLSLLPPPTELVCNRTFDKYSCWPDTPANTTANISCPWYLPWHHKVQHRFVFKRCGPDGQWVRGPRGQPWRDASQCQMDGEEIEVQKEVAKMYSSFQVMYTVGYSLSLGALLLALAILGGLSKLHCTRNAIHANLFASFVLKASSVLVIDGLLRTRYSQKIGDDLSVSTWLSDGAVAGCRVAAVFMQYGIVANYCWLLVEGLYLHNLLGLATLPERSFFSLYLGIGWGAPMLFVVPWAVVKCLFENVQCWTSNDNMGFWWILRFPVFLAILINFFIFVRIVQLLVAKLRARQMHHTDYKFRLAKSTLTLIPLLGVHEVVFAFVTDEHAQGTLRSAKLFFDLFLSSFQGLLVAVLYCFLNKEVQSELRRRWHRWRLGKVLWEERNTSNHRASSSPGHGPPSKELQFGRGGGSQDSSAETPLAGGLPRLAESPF
The experiment in a line: Inhibition of glucagon-stimulated cAMP production in CHO cells expressing glucagon-receptor. Particulars: CHO cells expressing glucagon-receptor stimulated by 100 pM glucagon, read-out: inhibitory rate on the action of glucagon (cAMP production). In kind it is cell-based. The protocol:
(§1) Screening of low molecular GIP function inhibitors was performed in accordance with the Example 1 of the screening method. Specifically, the GIP-receptor expressing CHO cells were stimulated with 100 pM GIP in the presence and absence of the test compound, and the amount of produced cAMP was measured to determine the GIP function inhibitory activity of the test compound. In addition, in order to confirm the receptor specificity of the test compound, the CHO cells expressing receptors of GLP-1 and glucagon which belong to glucagon-secretin family like GIP were stimulated with GLP-1 and glucagon (100 pM), respectively, and the inhibitory activity of the test compound on production of CAMP was determined. Moreover, in order to determine other effects which are unrelated to these receptors, the CHO cells without introducing any of these receptor genes were stimulated with 5 μM forskolin, and the inhibitory effect of the test compound on production of cAMP was determined. As for positive control, 500 nM GIP (7-30)-NH2 (tGIP) was used. [drawing 1]

In assay [3] the test system is CHO cells without transfer of receptor genes. As to the kind of experiment: Inhibition of forskolin-stimulated cAMP production in CHO cells without transfer of receptor genes. It counts as cell-based. Particulars: 5 μM forskolin. As to the method:
as §1
Background: cAMP levels reflect the balance of adenylyl cyclase and phosphodiesterase activity.

The target of assay [4] is T3, GLP-1-receptor (Homo sapiens, UniProt P43220).
T3 construct: expressed in transfected cells; host or cells: CHO cells
T3 sequence (P43220 24-463, species assumed): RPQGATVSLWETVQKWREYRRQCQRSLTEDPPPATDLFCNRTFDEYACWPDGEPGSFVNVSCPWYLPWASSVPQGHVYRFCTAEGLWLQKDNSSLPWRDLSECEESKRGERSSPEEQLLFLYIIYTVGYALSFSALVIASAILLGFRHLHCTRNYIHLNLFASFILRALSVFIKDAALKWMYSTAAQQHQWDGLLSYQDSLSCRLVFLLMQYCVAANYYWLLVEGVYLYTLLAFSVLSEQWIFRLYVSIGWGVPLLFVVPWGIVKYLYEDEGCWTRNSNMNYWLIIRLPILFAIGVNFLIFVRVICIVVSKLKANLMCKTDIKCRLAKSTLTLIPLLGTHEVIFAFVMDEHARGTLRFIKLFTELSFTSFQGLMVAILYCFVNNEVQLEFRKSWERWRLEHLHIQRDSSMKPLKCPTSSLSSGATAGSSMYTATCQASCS
The experiment in a line: Inhibition of GLP-1-stimulated cAMP production in CHO cells expressing GLP-1-receptor. The settings on record: CHO cells expressing GLP-1-receptor stimulated by 100 pM GLP-1. In kind it is cell-based. As to the method:
as §1

Assay [5] has as its system glucose absorption by the intestine. Particulars: reported in WO98/24464; cited from earlier work.
Assay [6] relates to C57BL/6j mice. As to the kind of experiment: GIP administration and high fat diet loading test in normal mice. It counts as in vivo. The settings on record: high fat diet. The protocol: The animals used were 17-week-old male C57BL/6j mice. An osmotic pump was implanted under the skin of the back of each animal. Groups of animals each consisting of 5 mice were continuously given GIP 20, 60 or 200 μg/kg/hour or physiological saline as control, and also given either high fat diet or control normal diet. The energy composition of high fat diet was: lipid 45%, carbohydrate 38%, and protein 17%. The energy composition of control normal diet was: lipid 13%, carbohydrate 60%, and protein 27%. The energy contents of high fat and control normal diets were 4.77 and 3.57 kcal/g, respectively. GIP administration and high fat diet loading were continued for 4 weeks.
The body weights were measured weekly, and their changes were compared between the groups. The blood samples were collected under fasting 4 weeks after the start of the experiment to determine the blood glucose and insulin levels.

The mark [7] stands for this setting: continuous GIP 20, 60 or 200 μg/kg/hour, after 4 weeks, vs same diet without GIP.

With `Cc1cc(O)n2nc(-c3ccccc3)c(Br)c2n1` [BMPP, 3-bromo-5-methyl-2-phenylpyrazolo[1,5-a]pyrimidine-7-ol], the EC50 in assay [1] is around 30 µM. Further, the inhibition at 80 µM in assay [2] stood at 27%. Besides, the “inhibitory effect on cAMP production stimulated by forskolin” value in assay [3] is recorded as “did not show any inhibitory effect”. The “inhibitory effect on GLP-1 action (cAMP production)” value in assay [4] is recorded as “almost no inhibitory effect”.

Take “GIP (7-30)-NH2: fragmented peptide of GIP, known GIP-receptor antagonist, used as positive control (ISDYSIAMDKIHQQDFVNWLLAQK-NH2; UniProt P09681 58-81, looked up, fragment)”: the “glucose absorption by the intestine” value in assay [5] was “suppressed glucose absorption by the intestine”.

Consider “GIP: gastric inhibitory polypeptide or glucose-dependent insulinotropic peptide, a gastrointestinal hormone (YAEGTFISDYSIAMDKIHQQDFVNWLLAQKGKKNDWKHNITQ; Gastric inhibitory polypeptide; UniProt P09681 52-93, looked up)”, for which, in assay [6] (continuous GIP 20, 60 or 200 μg/kg/hour by osmotic pump, 4 weeks), the body weight gain entry is “No further increase in the body weight gain”. Further, in assay [6] (setting [7]), the “fasting blood glucose levels” value is on record as “increased depending on the dose of GIP” and the “fasting blood insulin levels” value is recorded as “tended to increase depending on the dose of GIP”.

A word on the EC50: it is the concentration at which the effect is half-maximal.
